Measured values: PubChem BioAssay (NCI)
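Test compounds were applied to cells in 96-well plates for 48 hours at 5 doses. The concentration for 50% growth inhibition is given as GI50. TGI marks complete inhibition of growth.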

How the values were obtained:
Assay in all cases: inhibition of tumour cell growth, NCI panel, 48 h
[1] = tested on: HT29 colon
[2] = tested on: SN12C renal
[3] = tested on: OVCAR-3 ovarian
[4] = tested on: MDA-MB-435
[5] = tested on: UACC-257 melanoma
[6] = tested on: CCRF-CEM leukemia
[7] = tested on: K-562 leukemia
[8] = tested on: A498 renal
[9] = tested on: IGROV1 ovarian
[10] = tested on: HL-60(TB) leukemia
[11] = tested on: HOP-62 NSCLC
[12] = tested on: RPMI-8226 leukemia
[13] = tested on: U251 CNS
[14] = tested on: UACC-62 melanoma
[15] = tested on: SK-MEL-5 melanoma
[16] = tested on: T-47D breast
[17] = tested on: OVCAR-8 ovarian
[18] = tested on: OVCAR-4 ovarian
[19] = tested on: MCF7 breast
[20] = tested on: DU-145 prostate
[21] = tested on: SNB-75 CNS
[22] = tested on: SK-OV-3 ovarian
[23] = tested on: NCI-H226 lung
[24] = tested on: SNB-19 CNS
[25] = tested on: SK-MEL-28 melanoma
[26] = tested on: SF-268 CNS
[27] = tested on: MALME-3M melanoma
[28] = tested on: HCT-15 colon
[29] = tested on: MDA-MB-231 breast

SMILES: COc1ccc(-c2cc3c(N)ncnc3o2)cc1
- GI50 [1]: > 22.7 µM
- TGI [1]: > 25 µM
- GI50 [2]: 14.8 µM
- TGI [2]: > 25 µM
- GI50 [3]: > 25 µM
- TGI [3]: > 25 µM
- GI50 [4]: > 25 µM
- TGI [4]: > 25 µM
- GI50 [5]: > 25 µM
- TGI [5]: > 25 µM
- GI50 [6]: > 25 µM
- TGI [6]: > 25 µM
- GI50 [7]: > 25 µM
- TGI [7]: > 25 µM
- GI50 [8]: 8.14 µM
- TGI [8]: > 25 µM
- GI50 [9]: 24.3 µM
- TGI [9]: > 25 µM
- GI50 [10]: > 25 µM
- TGI [10]: > 25 µM
- GI50 [11]: > 25 µM
- TGI [11]: > 25 µM
- GI50 [12]: > 25 µM
- TGI [12]: > 25 µM
- GI50 [13]: > 25 µM
- TGI [13]: > 25 µM
- GI50 [14]: 5.72 µM
- TGI [14]: > 25 µM
- GI50 [15]: > 22.4 µM
- TGI [15]: > 25 µM
- GI50 [16]: > 25 µM
- TGI [16]: > 25 µM
- GI50 [17]: > 25 µM
- TGI [17]: > 25 µM
- GI50 [18]: > 25 µM
- TGI [18]: > 25 µM
- GI50 [19]: > 25 µM
- TGI [19]: > 25 µM
- GI50 [20]: 19.9 µM
- TGI [20]: > 25 µM
- GI50 [21]: 24.9 µM
- TGI [21]: > 25 µM
- GI50 [22]: > 25 µM
- TGI [22]: > 25 µM
- GI50 [23]: > 25 µM
- TGI [23]: > 25 µM
- GI50 [24]: > 25 µM
- TGI [24]: > 25 µM
- GI50 [25]: > 25 µM
- TGI [25]: > 25 µM
- GI50 [26]: 21.3 µM
- TGI [26]: > 25 µM
- GI50 [27]: 15.5 µM
- TGI [27]: > 25 µM
- GI50 [28]: > 25 µM
- TGI [28]: > 25 µM
- GI50 [29]: > 25 µM
- TGI [29]: > 25 µM
